Measured values reported in patent publication US10703757B2, “Compounds and methods for CDK8 modulation and indications therefor” (Plexxikon Inc., priority 2016, dated 2020).

System: CDK8 (phosphorylation of STAT1 at serine 727 in A549 cells)
Experiment: Cell based Phospho-STAT1 assay (IFNγ-stimulated A549 cells, AlphaLISA)
Details: Homo sapiens, A549, A549 cells, phospho-STAT1 after IFNγ stimulation
Description: Determine Inhibitor Activity Against CDK8 in Cell Based Phospho-STAT1 Assay
This assay measures the phosphorylation of the CDK8 substrate STAT1 following Interferon-gamma (IFNγ) stimulation^1. The lung carcinoma cell line A549 is seeded in a 96 well plate in 50 μL of culture media at 5×10^4 cells/well and incubated at 37° C. overnight. Serial dilutions of compounds (in total volume of 50 μL culture media) are added to the cells and incubated at 37° C. for one hour. Human IFNγ (R&D Systems) is added to the cells at a 10 ng/mL final concentration. 4 wells containing DMSO treated cells stimulated with IFNγ serve as high controls and 4 wells containing DMSO treated unstimulated cells serve as low controls. After 30 minute IFNγ stimulation at 37° C., the culture media is removed and 50 μL of 1×AlphaLISA lysis buffer (PerkinElmer GA, USA) is added to each well. 5 μL cell lysate is transferred to a 384 well AlphaPlate (PerkinElmer GA, USA) and 5 μL containing 0.156 nM Phospho-STAT1 (Ser727) rabbit monoclonal antibody (Cell Signaling Technology), 0.156 nM Mouse Anti-STAT1 antibody (BD Transduction Laboratories), and 10 μg/mL Anti-rabbit IgG AlphaLISA acceptor beads (PerkinElmer GA, USA) diluted in 1× AlphaLISA immunoassay buffer (PerkinElmer GA, USA) is added to the cell lysates and incubated at room temperature for 90 minutes. 5 μL Anti-Mouse IgG Alpha donor beads diluted in 1× AlphaLISA immunoassay buffer (PerkinElmer GA, USA) is added to the reaction mixture and incubated at room temperature for 90 minutes. Upon excitation of these beads with laser light at 680 nm, singlet oxygen is produced. This singlet oxygen is rapidly quenched, unless the AlphaLISA Anti-Rabbit IgG acceptor beads are in close proximity, in which case a proximity signal can be measured at […]. In the presence of cellular CDK8 catalytic activity, there is a very strong proximity signal. Selective CDK8 inhibitors affect a decrease in this proximity signal through a decrease in phosphorylation of STAT1 at serine 727. The percentage inhibition at individual concentrations relative to high and low controls is calculated. The data are analyzed by using nonlinear regression to generate IC50 values.

Structure (SMILES)	IC50
Cc1noc(C)c1-c1ccc(-c2cnn3cccc(C#CC(C)(C)O)c23)cc1 [Compound P-0227, 4-(3-(4-(3,5-dimethylisoxazol-4-yl)phenyl)pyrazolo[1,5-a]pyridin-4-yl)-2-methylbut-3-yn-2-ol]	1 to 10 µM
Cc1nn(C)c(C)c1-c1ccc(-c2cnn3cccc(C#CC(C)(C)O)c23)cc1 [Compound P-0236, 2-methyl-4-(3-(4-(1,3,5-trimethyl-1H-pyrazol-4-yl)phenyl)pyrazolo[1,5-a]pyridin-4-yl)but-3-yn-2-ol]	1 to 10 µM
COc1ncc(-c2cnn3cccc(C#CC(C)(C)O)c23)cn1 [Compound P-0288, 4-(3-(2-methoxypyrimidin-5-yl)pyrazolo[1,5-a]pyridin-4-yl)-2-methylbut-3-yn-2-ol]	0.1 to 1 µM
COC(=O)N1CCC(Oc2cccc3ncc(-c4ccc(-c5cnn(C(F)F)c5)cc4)n23)CC1 [Compound P-0291, methyl 4-((3-(4-(1-(difluoromethyl)-1H-pyrazol-4-yl)phenyl)imidazo[1,2-a]pyridin-5-yl)oxy)piperidine-1-carboxylate]	0.1 to 1 µM
CNC(=O)N1CCC(Oc2cccc3ncc(-c4ccc(-c5cnn(C(F)F)c5)cc4)n23)CC1 [Compound P-0292, 4-((3-(4-(1-(difluoromethyl)-1H-pyrazol-4-yl)phenyl)imidazo[1,2-a]pyridin-5-yl)oxy)-N-methylpiperidine-1-carboxamide]	1 to 10 µM
Cn1cc(C#Cc2cnc3cccc(N4CCC(CC(N)=O)CC4)n23)cn1 [Compound P-0294, 2-(1-(3-((1-methyl-1H-pyrazol-4-yl)ethynyl)imidazo[1,2-a]pyridin-5-yl)piperidin-4-yl)acetamide]	1 to 10 µM
CS(=O)(=O)N1CCC(Oc2cccc3ncc(-c4ccc(-c5cnn(C(F)F)c5)cc4)n23)CC1 [Compound P-0298, 3-(4-(1-(difluoromethyl)-1H-pyrazol-4-yl)phenyl)-5-((1-(methylsulfonyl)piperidin-4-yl)oxy)imidazo[1,2-a]pyridine]	1 to 10 µM
NC(=O)N1CCC(Oc2cccc3ncc(-c4ccc(-c5cnn(C(F)F)c5)cc4)n23)CC1 [Compound P-0299, 4-((3-(4-(1-(difluoromethyl)-1H-pyrazol-4-yl)phenyl)imidazo[1,2-a]pyridin-5-yl)oxy)piperidine-1-carboxamide]	1 to 10 µM
Cn1cc(-c2ccc(-c3cnn4cccc(C5=CCS(=O)(=O)CC5)c34)cc2)cn1 [Compound P-0300, 4-(3-(4-(1-methyl-1H-pyrazol-4-yl)phenyl)pyrazolo[1,5-a]pyridin-4-yl)-3,6-dihydro-2H-thiopyran 1,1-dioxide]	0.1 to 1 µM
Cn1cc(-c2ccc(-c3cnn4cccc(C5=CCSCC5)c34)cc2)cn1 [Compound P-0301, 4-(3,6-dihydro-2H-thiopyran-4-yl)-3-(4-(1-methyl-1H-pyrazol-4-yl)phenyl)pyrazolo[1,5-a]pyridine]	0.1 to 1 µM
Cn1cc(-c2ccc(C3=C4C(C5CCC(C#N)CC5)=CC=CN4NC3)cc2)cn1 (stereo not drawn) [Compound P-0302, 4-(3-(4-(1-methyl-1H-pyrazol-4-yl)phenyl)-1,2-dihydropyrazolo[1,5-a]pyridin-4-yl)cyclohexane-1-carbonitrile]	1 to 10 µM
FC(F)n1cc(-c2ccc(-c3cnc4cccc(OC5CCNCC5)n34)cc2)cn1 [Compound P-0305, 3-(4-(1-(difluoromethyl)-1H-pyrazol-4-yl)phenyl)-5-(piperidin-4-yloxy)imidazo[1,2-a]pyridine]	1 to 10 µM
CC(C)(C)OC(=O)N1CCC(Oc2cccc3ncc(-c4ccc(-c5cnn(C(F)F)c5)cc4)n23)CC1 [Compound P-0306, tert-butyl 4-((3-(4-(1-(difluoromethyl)-1H-pyrazol-4-yl)phenyl)imidazo[1,2-a]pyridin-5-yl)oxy)piperidine-1-carboxylate]	1 to 10 µM
CC(=O)NC(C)(C)C#Cc1cccn2ncc(-c3ccc(-c4cnn(C)c4)cc3)c12 [Compound P-0307, N-(2-methyl-4-(3-(4-(1-methyl-1H-pyrazol-4-yl)phenyl)pyrazolo[1,5-a]pyridin-4-yl)but-3-yn-2-yl)acetamide]	0.1 to 1 µM
COC(=O)CC1CCN(c2cccc3ncc(C#Cc4cnn(C)c4)n23)CC1 [Compound P-0312, methyl 2-(1-(3-((1-methyl-1H-pyrazol-4-yl)ethynyl)imidazo[1,2-a]pyridin-5-yl)piperidin-4-yl)acetate]	1 to 10 µM
Cn1cc(-c2ccc(-c3cnn4cccc(C#CC5(O)CCNCC5)c34)cc2)cn1 [Compound P-0338, 4-((3-(4-(1-methyl-1H-pyrazol-4-yl)phenyl)pyrazolo[1,5-a]pyridin-4-yl)ethynyl)piperidin-4-ol]	0.1 to 1 µM
Cn1cc(-c2ccc(-c3cnc4ccc(C#N)c(N5CCC(C#N)CC5)n34)cc2)cn1 [Compound P-0339, 5-(4-cyanopiperidin-1-yl)-3-(4-(1-methyl-1H-pyrazol-4-yl)phenyl)imidazo[1,2-a]pyridine-6-carbonitrile]	0.1 to 1 µM
N#CC1CCC(c2cccn3ncc(-c4ccc(-c5cnn(C(F)F)c5)cc4)c23)CC1 (stereo not drawn) [Compound P-0346, 4-(3-(4-(1-(difluoromethyl)-1H-pyrazol-4-yl)phenyl)pyrazolo[1,5-a]pyridin-4-yl)cyclohexane-1-carbonitrile]	0.1 to 1 µM
Cn1cc(-c2ccc(-c3cnn4cccc(C5CCC(C#N)CC5)c34)cc2)cn1 (stereo not drawn) [Compound P-0347, 4-(3-(4-(1-methyl-1H-pyrazol-4-yl)phenyl)pyrazolo[1,5-a]pyridin-4-yl)cyclohexane-1-carbonitrile]	0.1 to 1 µM
FC(F)n1cc(-c2ccc(-c3cnc4cccc(OC5CCSCC5)n34)cc2)cn1 [Compound P-0348, 3-(4-(1-(difluoromethyl)-1H-pyrazol-4-yl)phenyl)-5-((tetrahydro-2H-thiopyran-4-yl)oxy)imidazo[1,2-a]pyridine]	1 to 10 µM
O=S1(=O)CCC(Oc2cccc3ncc(-c4ccc(-c5cnn(C(F)F)c5)cc4)n23)CC1 [Compound P-0349, 4-((3-(4-(1-(difluoromethyl)-1H-pyrazol-4-yl)phenyl)imidazo[1,2-a]pyradin-5-yl)oxy)tetrahydro-2H-thiopyran 1,1-dioxide]	0.1 to 1 µM

Results, then the compound that gave them:

IC50	Structure (SMILES)
1 to 10 µM	Cn1ncc2cc(-c3cnn4ccnc(N5CCC(C#N)CC5)c34)ccc21 [Compound P-0326, 1-[3-(1-methylindazol-5-yl)pyrazolo[1,5-a]pyrazin-4-yl]piperidine-4-carbonitrile]
0.1 to 1 µM	N#CC1CCN(c2c(-c3ccc4c(c3)OC(F)(F)O4)cnc3[nH]ccc23)CC1 [Compound P-0334, 1-(5-(2,2-difluorobenzo[d][1,3]dioxol-5-yl)-1H-pyrrolo[2,3-b]pyridin-4-yl)piperidine-4-carbonitrile]
0.0001 to 0.1 µM	Cn1ncc2cc(-c3cnc4[nH]ccc4c3C3=CCC(C(N)=O)CC3)ccc21 (stereo not drawn) [Compound P-0335, 4-(5-(1-methyl-1H-indazol-5-yl)-1H-pyrrolo[2,3-b]pyridin-4-yl)cyclohex-3-ene-1-carboxamide]
0.1 to 1 µM	Cn1ncc2cc(-c3cnc4[nH]ccc4c3NCC(C)(C)C#N)ccc21 [Compound P-0336, 2,2-dimethyl-3-((5-(1-methyl-1H-indazol-5-yl)-1H-pyrrolo[2,3-b]pyridin-4-yl)amino)propanenitrile]
0.0001 to 0.1 µM	Cn1ncc2ccc(-c3cnc4[nH]ccc4c3C3=CCC(C#N)CC3)cc21 (stereo not drawn) [Compound P-0340, 4-(5-(1-methyl-1H-indazol-6-yl)-1H-pyrrolo[2,3-b]pyridin-4-yl)cyclohex-3-ene-1-carbonitrile]
0.0001 to 0.1 µM	Cc1nn(C)c2ccc(-c3cnc4[nH]ccc4c3C3=CCC(C#N)CC3)cc12 (stereo not drawn) [Compound P-0342, 4-(5-(1,3-dimethyl-1H-indazol-5-yl)-1H-pyrrolo[2,3-b]pyridin-4-yl)cyclohex-3-ene-1-carbonitrile]
0.1 to 1 µM	Cn1ncc2cc(-c3cnc4[nH]ccc4c3C#CC(C)(C)O)ccc21 [Compound P-0343, 2-methyl-4-(5-(1-methyl-1H-indazol-5-yl)-1H-pyrrolo[2,3-b]pyridin-4-yl)but-3-yn-2-ol]
0.1 to 1 µM	CC(C)(C)n1ncc2cc(-c3cnc4[nH]ccc4c3C3=CCC(C#N)CC3)ccc21 (stereo not drawn) [Compound P-0344, 4-(5-(1-(tert-butyl)-1H-indazol-5-yl)-1H-pyrrolo[2,3-b]pyridin-4-yl)cyclohex-3-ene-1-carbonitrile]
1 to 10 µM	Cn1ncc2cc(-c3nnc4cccc(C5=CCC(C#N)CC5)n34)ccc21 (stereo not drawn) [Compound P-0345, 4-(3-(1-methyl-1H-indazol-5-yl)-[1,2,4]triazolo[4,3-a]pyridin-5-yl)cyclohex-3-ene-1-carbonitrile]
